Assay results from ChEMBL document CHEMBL1123870, “Limited nerve impulse blockade by "leashed" local anesthetics” (1987).

Assay: Tonic inhibition of compound action potential by 50% was determined in the absence of avidin in desheathed frog sciatic nerves
Format: functional
Details: Amphibia, Sciatic nerve; read-out: ED50 (the source's name)

SMILES	EC50 [µM]
CCCCNc1ccc(C(=O)OCCN(C)C)cc1 [TETRACAINE]	12
CCN(CC)CCOC(=O)c1ccc(NC(=O)OCCOCCOCCO)cc1	3200
CCCCN(C(=O)CCCC[C@H]1SCC2NC(=O)NC21)c1ccc(C(=O)OCCN(C)C)cc1 (some centres not stated)	1500
CCN(CC)CCOC(=O)c1ccc(N)cc1 [PROCAINE]	1300
CCN(CC)CCOC(=O)c1ccc(NC(=O)OCCOCCOCCOCCOCCOCCO)cc1	6600

Results, then the compound that gave them:

EC50 [µM]	SMILES
4200	CCN(CC)CCOC(=O)c1ccc(NC(=O)CCCC[C@H]2SCC3NC(=O)NC32)cc1 (some centres not stated)
2400	CCN(CC)CCOC(=O)c1ccc(NC(=O)OCCOCCOCCOC(=O)CCCC[C@H]2SCC3NC(=O)NC32)cc1 (some centres not stated)
